Values quoted from earlier work, collected in US20040106141A1, “Methods and materials for examining pathways associated with glioblastoma progression” (The Regents of the University of California, priority 2002, published 2004).

System: SKMG-3 cells
Conditions: unstimulated SKMG-3 cells

Question: With `CNc1cc2c(Nc3cccc(Br)c3)ncnc2cn1` [PD158780] as the molecule, how does the “constitutive phosphorylation of Erk” value read?
Answer: reduces

Question: What about the “constitutive phosphorylation of the receptor (EGFR)” value (GBM cell line with EGFR gene amplification) of the same molecule?
Answer: reduces
